Structures are written as SMILES.

The results in this text go back to patent US20070259897A1, “Fungicidal Mixtures” (BASF Aktiengesellschaft, priority 2004, published 2007).

The test system of this test is Cochliobolus miyabeanus. Put plainly: Activity against brown spot of rice caused by Cochliobolus miyabeanus, protective application. The format is in vivo. The following applies: individual active compound, evaluated after 6 days. The method, then: The active compounds, separately or jointly, were prepared as a stock solution comprising 0.25% by weight of active compound in acetone or DMSO. 1% by weight of the emulsifier Uniperol® EL (wetting agent having emulsifying and dispersing action based on ethoxylated alkylphenols) was added to this solution, and the mixture was appropriately diluted with water to the desired concentration.
Use example—Activity against brown spot of rice caused by Cochliobolus miyabeanus, protective application Leaves of rice seedlings of the cultivar “Tai-Nong 67” which had been grown in pots were sprayed to runoff point with an aqueous suspension having the concentration of active compound stated below. The next day, the plants were inoculated with an aqueous spore suspension of Cochliobolus miyabeanus. The test plants were then placed in climatized chambers at 22-24° C. and 95-99% relative atmospheric humidity for 6 days. The extent of the development of infection on the leaves was then determined visually.
The visually determined values for the percentage of infected leaf area were converted into efficacies as a % of the untreated control:
The efficacy (E) is calculated as follows using Abbot's formula: E=(1−α/β)·100 α corresponds to the fungal infection of the treated plants in % and β corresponds to the fungal infection of the untreated (control) plants in % An efficacy of 0 means that the infection level of the treated plants corresponds to that of the untreated control plants; an efficacy of 100 means that the treated plants are not infected.
The expected efficacies of the mixtures of active compounds were determined using Colby's formula [R. S. Colby, “Calculating synergistic and antagonistic responses of herbicide combinations”, Weeds, 15, 20-22 (1967)] and are compared with the observed efficacies.
Colby's formula: E=x+y−x·y/100
E expected efficacy, expressed in % of the untreated control, when using the mixture of the active compounds A and B at the concentrations a and b x efficacy, expressed in % of the untreated control, when using active compound A at the concentration a y efficacy, expressed in % of the untreated control, when using active compound B at the concentration b

Take `CC1CCN(c2c(-c3c(F)cc(F)cc3F)c(Cl)nc3ncnn23)CC1` [I, 5-chloro-7-(4-methylpiperidin-1-yl)-6-(2,4,6-trifluorophenyl)[1,2,4]tri-azolo[1,5-a]pyrimidine]: the “Efficacy in % of the untreated control” value runs as follows: (3.1 ppm in the spray liquor) 22%; (6.25 ppm in the spray liquor) 56%.
Consider `CC12CC1(C)C(=O)N(c1cc(Cl)cc(Cl)c1)C2=O` (stereo not shown) [II (procymidone), 3-(3,5-dichlorophenyl)-1,5-dimethyl-3-aza-bicyclo[3.1.0]hexane-2,4-dione], for which the “Efficacy in % of the untreated control” value by setting is: (6.25 ppm in the spray liquor) 22%; (12.4 ppm in the spray liquor) 44%.
